Positions of bridges follow the written chain, without caps; N, C: chain ends. No end group written: not given here.
B1: TAX2 cyclic peptide (peptide)
peptide: CEVSQLLKGDAC
modifications: disulfide 1-12 (inferred); also: acetate salt
notes: disulfide linked 12 amino-acid cyclic peptide stretch of CD47; The two end residues are replaced by cysteines to close the ring; also called TAX2 peptide; TAX2 drug candidate; source: synthetic peptide (solid-phase synthesis, Fmoc chemistry; Genecust), purity >98%

Key:
[1] = 0.25 to 20 mg/mL in MilliQ water, 0.9% NaCl or 0.9% NaCl with 15 mM Tris; from lyophilized powder; A205, path length 0.05 cm, compared to powder weighing
Experimental: Absorbance values at 205 nm were measured on a NanoVue Plus^TM spectrophotometer (GE Healthcare, Chicago, IL, USA) using a quartz cuvette with a 0.05 cm path length.

[2] = test system: A2780 human ovarian carcinoma cells; conditions: A2780 model, 10 mg/kg i.p. thrice a week for 2 weeks
Experimental: (§1) Suspensions of A2780 or SK-OV-3 human ovarian carcinoma cells were s.c. inoculated (5 × 10^6 cells in 200 µL per animal) into the left flank of BALB/c athymic nude mice. Tumor measurements (length, L; width, W) were performed twice a week, using a digital caliper, and total tumor volume was calculated according to V = 0.5 × L × W^2. For randomization, mice were allocated to groups (n = 13–16 in each) based on similar mean and distribution of tumor volume on day 13. […] Body weight (BW) was monitored every 2 to 3 days, while clinical signs and behavior pattern were daily checked until study termination. Loss of 15% BW or tumor volume exceeding 1 cm^3 were considered an indication for euthanasia, as well as severe tumor necrosis, as it was sometimes associated with loss of body fluid and/or infection.

[3] = test system: SK-OV-3 human ovarian carcinoma cells; conditions: SK-OV-3 model, 10 mg/kg i.p. thrice a week for 7 weeks
Experimental: as §1

[4] = test system: platelets; experiment: Washed platelets flow cytometry analysis of activation (CD62P); type: cell-based, mouse; conditions: washed platelets pooled from 4 treated ID8 tumor-bearing mice per group; resting and 3.33 U/mL thrombin; CD62P exposure
Experimental: Washed platelets were freshly prepared as described elsewhere from a pool of 4 mouse blood samples by treatment group (ID8 allograft i.p. model). […] To promote activation, platelets were incubated with 3.33 U.mL^−1 thrombin (#D8537, Sigma-Aldrich) for 5 min, at room temperature. Platelets were probed with both a (FITC)-conjugated monoclonal anti-CD41 antibody (clone MWReg30; #553848, BD Pharmingen) and a (PE)-conjugated monoclonal anti-CD62P antibody (clone Wug.E9; #M130-2, Emfret Analytics) for 10 min, at room temperature, in the dark. IgG1-PE (clone R3-34; #P190_2, Emfret Analytics) and IgG1-FITC (clone R3-34; #553924, BD Pharmingen) were employed as isotype controls. Platelet isolation was performed by gating in forward and side scatter, as well as relying on CD41 positivity, while CD62P (P-selectin) membrane exposure reflects platelet activation.
Figure S2. […] 8 weeks old female and
(a) Photographs of spleen isolated on
Whitney U test statistical analyses (* p < 0.05).
mice having received chronic TAX2 or combination therapy. Upon sacrifice, blood was collected from
samples by treatment group.
investigated by flow cytometry. Platelet population was isolated based on anti‐CD41 positivity,
Activation was analyzed on […]

[5] = freshly collected EDTA plasma from Sprague Dawley rats, 500 µL, spiked at 50 ng/mL, 2 h at 4 °C or room temperature, sampled every 30 min, HPLC-MS/MS, n = 2 per condition (method b35: 1 µM, 37 °C, human plasma)
[6] = target: T1, recombinant mouse thrombospondin-1 with a C-terminal 6His tag (mouse, UniProt P35441 19-1170); experiment: SPR; Biacore T200; rmTSP-1 captured by its C-terminal 6His tag on anti-histidine antibody amine-coupled to a CM5 chip (2931 RU); peptides injected for 120 s at 30 uL/min, 25 °C; running buffer 10 mM HEPES, 0.15 M NaCl, 0.05% surfactant P20, 5 mM CaCl2, pH 7.4; single injections at 1 mM; single-cycle kinetics at 15.625-250 uM; contact-time experiment (30-600 s) at 500 uM TAX2; two-state reaction model, apparent KD; conditions: both partners purified
T1 construct: thrombospondin-1 (TSP-1), mouse, recombinant; also called rmTSP-1; TSP-1; source: bought: R&D Systems (#7859-TH); not shown: 6His, C-terminal, kept
T1 sequence (P35441 19-1170): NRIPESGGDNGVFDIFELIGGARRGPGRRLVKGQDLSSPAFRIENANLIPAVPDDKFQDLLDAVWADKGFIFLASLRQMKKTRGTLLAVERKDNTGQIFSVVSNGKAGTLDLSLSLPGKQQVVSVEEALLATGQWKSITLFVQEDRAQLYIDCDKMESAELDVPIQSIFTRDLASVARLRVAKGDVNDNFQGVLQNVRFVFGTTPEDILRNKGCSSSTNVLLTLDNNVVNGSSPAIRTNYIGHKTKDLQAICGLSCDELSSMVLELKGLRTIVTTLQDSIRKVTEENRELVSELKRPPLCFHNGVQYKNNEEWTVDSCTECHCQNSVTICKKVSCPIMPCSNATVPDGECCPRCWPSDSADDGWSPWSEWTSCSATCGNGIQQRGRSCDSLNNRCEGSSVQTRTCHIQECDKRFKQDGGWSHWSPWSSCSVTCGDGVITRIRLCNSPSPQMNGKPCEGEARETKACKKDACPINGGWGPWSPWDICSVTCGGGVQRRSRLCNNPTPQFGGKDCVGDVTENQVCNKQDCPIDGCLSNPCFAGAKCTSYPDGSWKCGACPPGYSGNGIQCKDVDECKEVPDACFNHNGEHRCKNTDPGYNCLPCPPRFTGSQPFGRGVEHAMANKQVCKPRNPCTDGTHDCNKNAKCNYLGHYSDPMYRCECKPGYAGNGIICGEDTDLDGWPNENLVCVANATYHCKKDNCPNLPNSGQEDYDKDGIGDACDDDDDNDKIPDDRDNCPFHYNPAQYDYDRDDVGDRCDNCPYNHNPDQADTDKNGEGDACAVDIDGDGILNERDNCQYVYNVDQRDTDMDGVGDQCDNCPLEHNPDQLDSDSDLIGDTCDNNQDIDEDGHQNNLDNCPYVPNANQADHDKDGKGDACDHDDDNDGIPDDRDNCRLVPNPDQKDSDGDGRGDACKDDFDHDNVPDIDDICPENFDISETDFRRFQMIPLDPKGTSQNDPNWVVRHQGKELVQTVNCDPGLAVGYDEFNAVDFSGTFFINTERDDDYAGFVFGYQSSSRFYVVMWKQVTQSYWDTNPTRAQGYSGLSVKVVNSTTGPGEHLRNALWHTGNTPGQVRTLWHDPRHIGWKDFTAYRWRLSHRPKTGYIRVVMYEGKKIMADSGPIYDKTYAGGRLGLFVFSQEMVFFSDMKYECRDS

binding result [6]	Molecule	solubility in aqueous solvents [1]	safety (body weight, clinical signs) [2]	safety (body weight, clinical signs) [3]	impact on platelet ability to activate [4]	stability in plasma (remaining TAX2, % of concentration at T0) [5]
	CC(C)C[C@@H]1NC(=O)[C@H](CC(C)C)NC(=O)[C@H](CCC(N)=O)NC(=O)[C@H](CO)NC(=O)[C@H](C(C)C)NC(=O)[C@H](CCC(=O)O)NC(=O)[C@@H](N)CSSC[C@@H](C(=O)O)NC(=O)[C@H](C)NC(=O)[C@H](CC(=O)O)NC(=O)CNC(=O)[C@H](CCCCN)NC1=O [TAX2]	completely soluble	appeared to be safe	appeared to be safe	Neither TAX2 monotherapy nor combined to anti-PD-1 mAb had any impact	remains stable in freshly collected plasma up to 2 hours
binds	B1					
